US20240025906A1 (NEURON23, INC., priority 2022, published 2024)
Read-outs that look alike come from different tables or passages of the source.

What was measured:
[1] = system: JAK1/TYK2 pSTAT5 (Tyr694/699) in THP-1 cell line; assay: IFNa-stimulated JAK1/TYK2 pSTAT5 (Tyr694/699) inhibition cellular assay, AlphaLISA; assay type: cell-based; details: THP-1 cells, AlphaLISA (Assay B)
Summary of the method: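 The readout is AlphaLISA signal at 615 nm for phospho-STAT5 in THP-1 lysates after IFNa stimulation (added at 100 ng/mL, 30 min, 37 °C). Cells had compound for 1 h beforehand across eight 6-fold concentrations up to 10000 nM final. IC50s are 4PL fits with bottom and Hill slope constrained.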

TYK2 JH2 = biological target: T1, TYK2 JH2 (Homo sapiens, UniProt P29597); assay: TYK2 JH2 binding assay (KINOMEscan KdELECT competitive binding); details: TYK2 JH2 domain
T1 construct: purchased DiscoverX (KINOMEscan KdELECT service); host or cells: E. coli BL21-derived (T7 phage display) or HEK-293
T1 sequence (P29597 589-875 limits assumed): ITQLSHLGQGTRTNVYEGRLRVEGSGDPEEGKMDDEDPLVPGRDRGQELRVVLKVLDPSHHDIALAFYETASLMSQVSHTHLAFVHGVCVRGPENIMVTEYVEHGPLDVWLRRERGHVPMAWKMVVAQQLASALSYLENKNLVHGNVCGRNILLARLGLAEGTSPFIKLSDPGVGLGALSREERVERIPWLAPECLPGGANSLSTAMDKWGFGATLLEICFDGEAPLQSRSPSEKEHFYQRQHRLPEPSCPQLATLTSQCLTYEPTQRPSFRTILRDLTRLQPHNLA
Summary of the method: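 Kd values come from qPCR measurement of kinase retained on an immobilized-ligand resin after 1 h room-temperature competition with compound in an 11-point, 3-fold series.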

[2] = Homo sapiens, IFNa-stimulated pSTAT5 (Tyr694/699), read-out: Cellular_THP1_IFNa-pSTATS_TYK2
[3] = KINOMEscan KdELECT (Assay A), read-out: Biochemical TYK2_DiscoverX_JH2_BND_Kd
[4] = Homo sapiens, IFNa-stimulated, read-out: Cellular_THP1_IFNa-pSTATS_TYK2
[5] = DiscoverX KINOMEscan KdELECT (Assay A), read-out: Biochemical TYK2_DiscoverX_JH2_BND_Kd

| Structure (SMILES) | Kd (TYK2 JH2; [3]) [nM] | IC50 [1, 4] [nM] | Kd (TYK2 JH2; [5]) [nM] | other results |
| --- | --- | --- | --- | --- |
| CCNc1ncc(C#Cc2ccc3nc4n(c3c2)CCOC4)c2cc(NC(=O)C3CC3)ncc12 [Example 750, N-(5-((3,4-dihydro-1H-benzo[4,5]imidazo[2,1-c][1,4]oxazin-7-yl)ethynyl)-8-(ethylamino)-2,7-naphthyridin-3-yl)cyclopropanecarboxamide] | ≤ 100 | ≤ 500 |  |  |
| CNc1ncc(C#Cc2ccc(N3CCOCC3)cc2)c2cc(NC(=O)[C@H]3C[C@H]3C(F)F)ncc12 (single isomer, unassigned) [Example 1075] | ≤ 100 |  |  | IC50 [1, 2]: ≤ 500 nM |
| CNc1ncc(C#Cc2ccc3nc(CO)sc3c2)c2cc(NC(=O)C3CC3)ncc12 [Example 668, N-(5-((2-(hydroxymethyl)benzo[d]thiazol-6-yl)ethynyl)-8-(methylamino)-2,7-naphthyridin-3-yl)cyclopropanecarboxamide] | ≤ 100 | ≤ 500 |  |  |
| CNc1ncc(C#Cc2ccc(OC)cn2)c2cc(NC(=O)[C@H]3C[C@H]3CF)ncc12 (single isomer, unassigned) [Example 822] | ≤ 100 | ≤ 500 |  |  |
| CNc1ncc(-c2nc3cc(N4C[C@H]5C[C@@H]4CO5)ccc3o2)c2cc(NC(=O)C3CC3)ncc12 [Example 299, N-(5-(5-((1R,4R)-2-oxa-5-azabicyclo[2.2.1]heptan-5-yl)benzo[d]oxazol-2-y1)-8-(methylamino)-2,7-naphthyridin-3-yl)cyclopropanecarboxamide] |  | ≤ 500 | ≤ 100 |  |
| CNc1ncc(C#Cc2ccc(P(C)(C)=O)cn2)c2cc(NC(=O)C3CC3)ncc12 [Example 738, N-(5-((5-(dimethylphosphoryl)pyridin-2-yl)ethynyl)-8-(methylamino)-2,7-naphthyridin-3-yl)cyclopropanecarboxamide] | ≤ 100 | ≤ 500 |  |  |
| CNc1ncc(-c2nc3cc(F)c(N4CCOC(C)C4)cn3n2)c2cc(NC(=O)C3CC3)ncc12 (stereo not shown) [Example 499, N-(5-(7-fluoro-6-(2-methylmorpholino)-[1,2,4]triazolo[1,5-a]pyridin-2-yl)-8-(methylamino)-2,7-naphthyridin-3-yl)cyclopropanecarboxamide] |  | ≤ 500 | ≤ 100 |  |
| CNc1ncc(-c2nc3cccc(C)c3o2)c2cc(NC(=O)C3CC3)ncc12 [Example 205, N-(8-(methylamino)-5-(7-methylbenzo[d]oxazol-2-yl)-2,7-naphthyridin-3-yl)cyclopropanecarboxamide] |  | ≤ 500 | ≤ 100 |  |
| CCO/C=C\c1cccc2nc(-c3cnc(NC)c4cnc(NC(=O)C5CC5)cc34)oc12 [Example 268, (Z)—N-(5-(7-(2-ethoxyvinyl)benzo[d]oxazol-2-yl)-8-(methylamino)-2,7-naphthyridin-3-yl)cyclopropanecarboxamide] |  | ≤ 500 | ≤ 100 |  |
| CNc1ncc(C#Cc2ccc(OC)cn2)c2cc(NC(=O)N3CCOCC3)ncc12 [Example 1082, N-[5-[2-(5-methoxy-2-pyridyl)ethynyl]-8-(methylamino)-2,7-naphthyridin-3-yl]morpholine-4-carboxamide] | ≤ 100 |  |  | IC50 [1, 2]: ≤ 500 nM |
| CNc1ncc(-c2nc3cc(C4CCN([C@@]5(C)COC[C@H]5O)CC4)ccc3o2)c2cc(NC(=O)C3CC3)ncc12 (racemic) [Example 260, N-(5-(5-(1-(4-hydroxy-3-methyltetrahydrofuran-3-yl)piperidin-4-yl)benzo[d]oxazol-2-yl)-8-(methylamino)-2,7-naphthyridin-3-yl)cyclopropanecarboxamide] |  | ≤ 500 | ≤ 100 |  |
| CNc1ncc(-c2nc3cc(OCCOC)ccc3o2)c2cc(NC(=O)C3CC3)ncc12 [Example 231, N-(5-(5-(2-methoxyethoxy)benzo[d]oxazol-2-yl)-8-(methylamino)-2,7-naphthyridin-3-yl)cyclopropanecarboxamide] |  | ≤ 500 | ≤ 100 |  |
| CNc1ncc(-c2nc3cc(N4CC(OCCC#N)C4)ccc3o2)c2cc(NC(=O)C3CC3)ncc12 [Example 323, N-(5-(5-(3-(2-cyanoethoxy)azetidin-1-yl)benzo[d]oxazol-2-yl)-8-(methylamino)-2,7-naphthyridin-3-yl)cyclopropanecarboxamide] |  | ≤ 500 | ≤ 100 |  |
| CNc1ncc(-c2cccnc2)c2cc(NC(=O)C3CC3)ncc12 [Example 14, N-(8-(methylamino)-5-(pyridin-3-yl)-2,7-naphthyridin-3-yl)cyclopropanecarboxamide] |  |  |  | IC50 ([1]; Homo sapiens, IFNa-stimulated, read-out: Cellular THP1_IFNa-pSTATS_IC50): > 500 nM; Kd (TYK2 JH2; KINOMEscan KdELECT (Assay A), read-out: Biochemical TYK2_JH2_Kd): ≤ 100 nM |
| CNc1ncc(C#Cc2ccc(OC3CN(C(C)=O)C3)cc2)c2cc(NC(=O)C3(F)CC3)ncc12 [Example 760, N-(5-((4-((1-acetylazetidin-3-yl)oxy)phenyl)ethynyl)-8-(methylamino)-2,7-naphthyridin-3-yl)-1-fluorocyclopropane-1-carboxamide] | ≤ 100 | ≤ 500 |  |  |
| CNc1ncc(C#Cc2ccc3nnn(C(C)C)c3c2)c2cc(NC(=O)C3CC3)ncc12 [Example 681, N-(5-((1-isopropyl-1H-benzo[d][1,2,3]triazol-6-yl)ethynyl)-8-(methylimino)-2,7-naphthyridin-3-yl)cyclopropanecarboxamide] | ≤ 100 | ≤ 500 |  |  |

Now from value to compound, other results behind:

| Kd (TYK2 JH2; [3]) [nM] | IC50 [1, 4] [nM] | Kd (TYK2 JH2; [5]) [nM] | Structure (SMILES) | other results |
| --- | --- | --- | --- | --- |
| ≤ 100 |  |  | [2H]C([2H])(C)Nc1ncc(-c2nc3ccc(N4CCOCC4)cn3n2)c2cc(NC(=O)C3CC3)ncc12 [Example 1096, N-(8-((ethyl-1,1-d2)amino)-5-(6-morpholino-[1,2,4]triazolo[1,5-a]pyridin-2-yl)-2,7-naphthyridin-3-yl)cyclopropanecarboxamide] | IC50 [1, 2]: ≤ 500 nM |
| ≤ 100 | ≤ 500 |  | CNc1ncc(-c2nc3ccc(N4CCOCC4)cn3n2)c2cc(NC(=O)[C@@H]3CC3(F)F)ncc12 (single isomer, unassigned) [Example 994] |  |
|  | ≤ 500 | ≤ 100 | CNc1ncc(-c2nc3cc(N4CCOCC4)ccc3o2)c2cc(NC(=O)C3CC3)ncc12 [Example 345, N-(8-(methylamino)-5-(5-morpholinobenzo[d]oxazol-2-yl)-2,7-naphthyridin-3-yl)cyclopropanecarboxamide] |  |
|  | ≤ 500 | ≤ 100 | CNc1ncc(-c2nc3ccc(OC)cn3n2)c2cc(NC(=O)C3CC3)ncc12 [Example 470, N-(5-(6-methoxy-[1,2,4]triazolo[1,5-a]pyridin-2-yl)-8-(methylamino)-2,7-naphthyridin-3-yl)cyclopropanecarboxamide] |  |
| ≤ 100 |  |  | CNc1ncc(-c2nc3ccc(N4CCOC(COC)C4)cn3n2)c2cc(NC(=O)C3CC3)ncc12 (single isomer, unassigned) [Example 1024] | IC50 ([1]; IFNa-stimulated pSTAT5 (Tyr694/699), read-out: Cellular_THP1_IFNa-pSTATS_TYK2): ≤ 500 nM |
| ≤ 100 |  |  | CNc1ncc(-c2nc3ccc(N4CCOCC4)cn3n2)c2cc(Nc3ccc(C(F)(F)F)cn3)ncc12 [Example 1090, N1-methyl-4-(6-morpholino-[1,2,4]triazolo[1,5-a]pyridin-2-yl)-N6-[5-(trifluoromethyl)-2-pyridyl]-2,7-naphthyridine-1,6-diamine] | IC50 [1, 2]: > 500 nM |
|  | ≤ 500 | ≤ 100 | CNc1ncc(-c2nc3ccc(N4CCOCC4)cn3n2)c2cc(Nc3ccc(C(C)(C)O)cn3)ncc12 [Example 538, 2-(6-((8-(methylamino)-5-(6-morpholino-[1,2,4]triazolo[1,5-a]pyridin-2-yl)-2,7-naphthyridin-3-yl)amino)pyridin-3-yl)propan-2-ol] |  |
